Columns and labels:
[1] = Stability test: content on storage and shelf life; conditions: calculated with Arrehnius equation; component of prescription (b) of Example 2
[2] = low dose; cited from earlier work

SMILES | Shelf life (time that content maintains more than 90% of initial at 25° C.) [1] [months] | eliminated as unmetabolized form [2]
Cn1c(=O)c2c(ncn2C)n(C)c1=O [Caffeine anhydrous] | 89.84 | –
N[C@@H](CC(=O)[O-])C(=O)[O-].O.[Na+].[Na+] [Sodium L-aspartate monohydrate] | 33.86 | –
CC(=O)Nc1ccc(O)cc1 [Acetaminophen] | 35.94 | about 2%
CSCCC(N)C(=O)O (racemic) [DL-Methionine] | 35.64 | –

— patent US6048540A, “Acetamenophen composition with reduced liver toxicity” (Chong Kun Dang Corp., priority 1997, dated 2000)
